In article PMC12731528, “High‐Affinity Peptide‐Drug Conjugate Ligands for the TRIM24 PHD and Bromodomain” (Chemistry (Weinheim an Der Bergstrasse, Germany), 2025):
“And” between values parts separate entries of the source, which are not always exact repeats. Identical values can stand only once. Like-named read-outs stand apart in the source and are kept apart here.

Key:
[1] = molecular target: TRIM24; settings: ref Gechijian et al. 2018; cited from earlier work
[2] = molecular target: BRPF1; settings: ref Gechijian et al. 2018; cited from earlier work
[3] = molecular target: T1, His6-TRIM24 (PHD-BRD) (Homo sapiens, UniProt O15164); assay: AlphaScreen competition assay, displacement of biotinylated H3(1–27)K9Me3K18Ac (B3); assay type: binding; set-up: N825–E1007; made in house; host or cells: Escherichia coli BL21-Gold (DE3), plasmid pNIC28-Bsa4; settings: for IC50: AlphaScreen® IC50 (TRIM24 PHD-BRD), inhibition of TRIM24-H3K9Me3K18Ac (B3) binding, mean of triplicate ± SEM; for AlphaScreen signal at plateau relative to baseline: competitor H3(1–27)K9Me3K18Ac
T1 sequence (O15164 825-1007): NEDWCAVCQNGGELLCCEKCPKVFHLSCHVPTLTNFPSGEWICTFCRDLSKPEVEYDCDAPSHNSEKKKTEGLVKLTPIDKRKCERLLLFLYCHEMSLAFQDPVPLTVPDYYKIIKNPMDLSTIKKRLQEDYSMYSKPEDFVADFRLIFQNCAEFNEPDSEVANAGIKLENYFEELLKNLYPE

[4] = molecular target: T1, His6-TRIM24 (PHD-BRD); assay: AlphaScreen competition assay, displacement of biotinylated H3(1–27)K18Ac (B2); set-up: N825–E1007; made in house; host or cells: Escherichia coli BL21-Gold (DE3), plasmid pNIC28-Bsa4; settings: inhibition of TRIM24-H3K18Ac (B2) binding; mean of triplicate ± SEM
[5] = test system: TRIM33β; set-up: method as in PMID 36098557, PMID 26061247; settings: cited from earlier work
[6] = test system: TRIM33α; set-up: method as in PMID 36098557, PMID 26061247; settings: cited from earlier work
[7] = molecular target: T1, His6-TRIM24 (PHD-BRD)
[8] = molecular target: His6-TRIM24 (PHD-BRD) (UniProt O15164); assay: other; AlphaScreen, competitor biotinylated H3K9Me3K18Ac (B3)
[9] = molecular target: T1, His6-TRIM24 (PHD-BRD); assay: Surface plasmon resonance (SPR); assay type: binding; set-up: N825–E1007; made in house; host or cells: Escherichia coli BL21-Gold (DE3), plasmid pNIC28-Bsa4; settings: 15 °C; for Kd: mean of means of triplicate ± SEM
[10] = molecular target: T2, BRPF1 (BRD) (Homo sapiens, UniProt P55201); assay: BROMOscan assay, BRPF1; settings: mean of duplicate data ± 95% confidence interval
T2 sequence (P55201 628-732 limits assumed): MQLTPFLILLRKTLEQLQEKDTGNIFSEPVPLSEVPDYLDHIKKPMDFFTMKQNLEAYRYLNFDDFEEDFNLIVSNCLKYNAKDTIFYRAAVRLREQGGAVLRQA

[11] = molecular target: T3, TRIM24 (PHD‐BRD) (Homo sapiens, UniProt O15164); assay: BROMOscan assay, TRIM24; assay type: binding
T3 sequence (O15164 826-1004 limits assumed): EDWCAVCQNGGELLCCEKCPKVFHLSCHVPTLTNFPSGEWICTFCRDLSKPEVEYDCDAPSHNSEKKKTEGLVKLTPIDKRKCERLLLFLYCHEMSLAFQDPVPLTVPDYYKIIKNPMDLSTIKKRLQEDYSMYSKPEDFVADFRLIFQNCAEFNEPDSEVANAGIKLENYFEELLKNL
Description: The Hill Slope was set to −1.

[12] = test system: CAL-51 (triple negative); assay: MTT assay, CAL-51; assay type: cell-based, human; settings: triple-negative breast cancer cell line, up to 10 μM, 16 h
Experimental: (§1) (ER+) and CAL-51 (triple negative), treated with the indicated compound (10 µM). The data are represented as the mean of means for two biological repeats (n = 2), each consisting of three technical repeats. Error bars indicate the standard error of the mean. […]
(§2) due to issues with procurement at the time of running the assay. […]
(§3) indicated compound (10 µM). Compounds were added after seeding on day 0 only and counting was carried out each day for 6 days. Data are represented as the mean of triplicate data from one biological repeat. Error bars indicate the standard deviation. […]
(§4) supplemented with 10% FBS (Merck Life Sciences U.K. Ltd., F7524). Unless otherwise stated, cells were cultured in a humidified incubator at 37 °C and 5% CO2. Cell lines were passaged by trypsinisation (Trypsin-EDTA solution 1×, Merck Life Sciences U.K. Ltd., T3924), and by diluting the cells into a culture flask at the desired density in complete media. Cell lines were […]
(§5) Cells were seeded and allowed to adhere for 6 h in plastic clear-bottomed 96-well plates in a total volume of 200 μL/well complete medium.

[13] = test system: CAL-51 cells; assay: Proliferation and clonogenic assays, CAL-51; assay type: cell-based, human; settings: CAL-51, 10 µM
Experimental: (§6) (1 picture or pasted object on this page, not shown here) […]
as §4, §5

[14] = test system: MCF-7 cells; assay: Proliferation and clonogenic assays, MCF-7; assay type: cell-based, human; settings: MCF-7, 10 µM
Experimental: as §1, §2, §3
Error bars indicate the standard deviation.
as §6, §4, §5

[15] = test system: BT-474 (ER+); assay: MTT assay, BT-474; assay type: cell-based, human; settings: ER+ breast cancer cell line, up to 10 μM, 16 h
Experimental: as §1, §2, §3, §4, §5

[16] = molecular target: T4, BRPF1 (BRD); settings: Synthetic nine-residue H3(1-9) peptide. Residue 9 (K10 in precursor numbering) is unnatural amino acid 42, a lysine analogue whose side-chain nitrogen is part of an isoindoline ring (parent written as Lys). C-terminal group is not stated in the text. Limits are inferred from H3(1-8) peptide 46 plus amino acid 42. limits by convention from the usual BRPF1 bromodomain structural construct (covers B); modification not given
T4 chain: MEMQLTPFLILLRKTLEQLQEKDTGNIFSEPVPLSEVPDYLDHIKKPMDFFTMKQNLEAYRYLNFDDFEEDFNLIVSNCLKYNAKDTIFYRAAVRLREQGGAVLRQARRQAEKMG

[17] = molecular target: T4, BRPF1 (BRD); assay: BROMOscan; settings: Synthetic nine-residue H3(1-9) peptide. Residue 9 (K10 in precursor numbering) is unnatural amino acid 42, a lysine analogue whose side-chain nitrogen is part of an isoindoline ring (parent written as Lys). C-terminal group is not stated in the text. Limits are inferred from H3(1-8) peptide 46 plus amino acid 42. limits by convention from the usual BRPF1 bromodomain structural construct (covers B); modification not given

CCCOc1cccc(Oc2cc3c(cc2NS(=O)(=O)c2cccc(C(=O)NCCOCCOCCOCC(=O)N[C@H](C(=O)N4C[C@H](O)C[C@H]4C(=O)NCc4ccc(-c5scnc5C)cc4)C(C)(C)C)c2)n(C)c(=O)n3C)c1 [dTRIM24]
Kd [1]: 42 nM
Kd [2]: 52 nM

CCCOc1cccc(Oc2cc3c(cc2NS(=O)(=O)c2cccc(C(=O)NCCOCCOCCNC(C)=O)c2)n(C)c(=O)n3C)c1 [compound 32]
IC50 [3]: 484 nM
AlphaScreen signal at plateau relative to baseline [3]: did not decrease to baseline
IC50 [4]: 105 ± 5.3 nM

CCCOc1cc(OCCCCN(C)C)cc(Oc2cc3c(cc2NS(=O)(=O)c2ccc(OC)c(OC)c2)n(C)c(=O)n3C)c1 [IACS9571]
binding to TRIM33β [5]: does not bind
binding to TRIM33α [6]: does not bind

C[C@H](N)C(=O)N[C@@H](CCCNC(=N)N)C(=O)N[C@H](C(=O)N[C@@H](CCCC[N+](C)(C)C)C(=O)N[C@@H](CCC(N)=O)C(=O)N[C@H](C(=O)N[C@@H](C)C(=O)N[C@@H](CCCNC(=N)N)C(=O)N[C@@H](CCCCN)C(=O)N[C@@H](CO)C(=O)N[C@H](C(=O)NCC(=O)NCC(=O)N[C@@H](CCCCN)C(=O)N[C@@H](C)C(=O)O)[C@@H](C)O)[C@@H](C)O)[C@@H](C)O [reference compound]
IC50 [3]: > 400000 nM
IC50 [4]: > 400000 nM
IC50 ([7]; AlphaScreen® IC50, inhibition of TRIM24-H3K9Me3 (B1) binding by PDCs and controls, mean of triplicate ± SEM): > 400000 nM
IC50 ([7]; AlphaScreen® IC50, inhibition of TRIM24-H3K9Me3 (B1) binding, mean of triplicate data ± standard error of the mean): > 400000 nM

H3(1-27)K9Me3K18Ac
IC50 [8]: 242 nM

CCCOc1cccc(Oc2cc3c(cc2NS(=O)(=O)c2cccc(C(=O)O)c2)n(C)c(=O)n3C)c1 [compound 28]
IC50 [3]: > 100000 nM
AlphaScreen signal at plateau relative to baseline [3]: did not decrease to baseline
IC50 [4]: 388 ± 46.6 nM

CCCOc1cccc(Oc2cc3c(cc2NS(=O)(=O)c2cccc(C(=O)NCCOCCOCCOCCOCCNC(C)=O)c2)n(C)c(=O)n3C)c1 [compound 34]
IC50 [3]: 275 nM
AlphaScreen signal at plateau relative to baseline [3]: did not decrease to baseline
IC50 [4]: 94.2 ± 4.6 nM
koff ([9]; SPR): 0.061 s⁻¹
kon ([9]; SPR): 6.1e+06 M⁻¹ s⁻¹
Kd ([9]; binding saturation, read-out: SPR Kd – equilibrium): 11 ± 2.3 nM
Kd ([9]; multi-cycle kinetics, read-out: SPR Kd – kinetic): 10 ± 7 nM
Kd [10]: 2.15 ± 0.49 nM
Kd ([11]; BROMOscan TRIM24 PHD-BRD Kd, mean of duplicate data ± 95% confidence interval): 2 ± 0.98 nM
Kd ([11]; individual duplicate curves, read-out: BROMOscan TRIM24 Kd, single dose-response curve): 2.5 nM and 1.5 nM

CCCOc1cccc(Oc2cc3c(cc2NS(=O)(=O)c2cccc(C(=O)NCCOCCOCCOCCNC(C)=O)c2)n(C)c(=O)n3C)c1 [compound 33]
cytotoxic effects (MTT) [12]: did not show cytotoxic effects
effect on breast cancer cell growth [13]: neither compound significantly affected
IC50 [3]: 348 nM
AlphaScreen signal at plateau relative to baseline [3]: did not decrease to baseline
IC50 [4]: 71 ± 4.1 nM
effect on breast cancer cell growth [14]: neither compound significantly affected
cytotoxic effects (MTT) [15]: did not show cytotoxic effects

B1: TRIM24 PHD-binding peptide (56) (peptide)
chain: ARTKQTARK
Kd [16]: > 10000 nM
Kd [17]: > 10000 nM
